Molecules are shown by their SMILES. In brackets after ≈: the same amount, converted by molar mass.

Assay in all cases: Bacterial growth minimal inhibitory concentration (microdilution, cation-adjusted Mueller-Hinton Broth)
On the technique in general: Dilution methods test growth across graded concentrations, often in twofold steps.

Test [1] has as its system E. coli ATCC25922. Format: cell-based. The note with it: Escherichia coli, ATCC25922; quinolone-sensitive strain. As for the experimental part: (§1) Minimal Inhibitory Concentrations (MICs; mg/L) were determined in cation-adjusted Mueller-Hinton Broth by a microdilution method following the description given in “Methods for Dilution Antimicrobial Susceptibility Tests for Bacteria that Grow Aerobically”, Approved standard, 7th ed., Clinical and Laboratory Standards Institute (CLSI) Document M7-A7, Wayne, Pa., USA (2006).
(§2) All Example compounds were tested against several Gram positive and Gram negative bacteria. […] Staphylococcus aureus A798 is a multiply-resistant strain (methicillin- and quinolone-resistant), Klebsiella pneumoniae T6474 is a multiply-resistant strain (penicillin-, cephalosporin- and in particular quinolone-resistant), while E. coli ATCC25922 and Pseudomonas aeruginosa ATCC 27853 are quinolone-sensitive strains.

Test [2] relates to K. pneumoniae T6474. Format: cell-based, Klebsiella pneumoniae. The conditions noted are these: Klebsiella pneumoniae, T6474; multiply-resistant strain (penicillin-, cephalosporin- and quinolone-resistant). Here is the method:
as §1, §2

Test [3] deals with P. aeruginosa ATCC 27853. Format: cell-based, Pseudomonas aeruginosa. The note with it: Pseudomonas aeruginosa, ATCC27853; quinolone-sensitive strain. Here is the method: as §1, §2
Test [4] deals with S. aureus A798. The format is cell-based, Staphylococcus aureus. The conditions noted are these: Staphylococcus aureus, A798; multiply-resistant strain (methicillin- and quinolone-resistant). Here is the method:
as §1, §2

Turning to `NCCOc1cccc(-c2cccc(CNCC[C@H]3CN(c4ccc5c(n4)NC(=O)CO5)C(=O)O3)c2)c1` [Example 1, 6-[(S)-5-(2-{[3′-(2-amino-ethoxy)-biphenyl-3-ylmethyl]-amino}-ethyl)-2-oxo-oxazolidin-3-yl]-4H-pyrido[3,2-b][1,4]oxazin-3-one], the MIC in test [1] turned out to be 1 µg/mL (≈ 1.99 µM); in test [2], 1 µg/mL (≈ 1.99 µM); in test [3], 2 µg/mL (≈ 3.97 µM); in test [4], 2 µg/mL (≈ 3.97 µM).
As to `CN(C)CCOc1cccc(-c2cccc(CNCC[C@H]3CN(c4ccc5c(n4)NC(=O)CO5)C(=O)O3)c2)c1` [Example 2, 6-[(S)-5-(2-{[3′-(2-dimethylamino-ethoxy)-biphenyl-3-ylmethyl]-amino}-ethyl)-2-oxo-oxazolidin-3-yl]-4H-pyrido[3,2-b][1,4]oxazin-3-one], the minimal inhibitory concentration (MIC) stood at 2 µg/mL (≈ 3.76 µM) in test [1], 2 µg/mL (≈ 3.76 µM) in test [2], 4 µg/mL (≈ 7.52 µM) in test [3] and 0.5 µg/mL (≈ 0.941 µM) in test [4].
In the case of `NCCCOc1cccc(-c2cccc(CNCC[C@H]3CN(c4ccc5c(n4)NC(=O)CO5)C(=O)O3)c2)c1` [Example 3, 6-[(S)-5-(2-{[3′-(3-amino-propoxy)-biphenyl-3-ylmethyl]-amino}-ethyl)-2-oxo-oxazolidin-3-yl]-4H-pyrido[3,2-b][1,4]oxazin-3-one], the MIC in test [1] was 1 µg/mL (≈ 1.93 µM); in test [2], 2 µg/mL (≈ 3.86 µM); in test [3], 2 µg/mL (≈ 3.86 µM); in test [4], 2 µg/mL (≈ 3.86 µM).
Turning to `CNCCOc1cccc(-c2cccc(CNCC[C@H]3CN(c4ccc5c(n4)NC(=O)CO5)C(=O)O3)c2)c1` [Example 4, 6-[(S)-5-(2-{[3′-(2-methylamino-ethoxy)-biphenyl-3-ylmethyl]-amino}-ethyl)-2-oxo-oxazolidin-3-yl]-4H-pyrido[3,2-b][1,4]oxazin-3-one], the MIC in test [1] came out at 1 µg/mL (≈ 1.93 µM); in test [2], 2 µg/mL (≈ 3.86 µM); in test [3], 2 µg/mL (≈ 3.86 µM); in test [4] it was 2 µg/mL (≈ 3.86 µM).
Turning to `NCCCCOc1cccc(-c2cccc(CNCC[C@H]3CN(c4ccc5c(n4)NC(=O)CO5)C(=O)O3)c2)c1` [Example 5, 6-[(S)-5-(2-{[3′-(4-amino-butoxy)-biphenyl-3-ylmethyl]-amino}-ethyl)-2-oxo-oxazolidin-3-yl]-4H-pyrido[3,2-b][1,4]oxazin-3-one], the MIC in test [1] amounted to 4 µg/mL (≈ 7.52 µM); in test [2], 4 µg/mL (≈ 7.52 µM); in test [3], 4 µg/mL (≈ 7.52 µM); in test [4], 2 µg/mL (≈ 3.76 µM).
`NCCOc1cccc(-c2cccc(CNCC[C@H]3CN(c4ccc5c(n4)NC(=O)CO5)C(=O)O3)c2)n1` [Example 8, 6-[(S)-5-(2-{3-[6-(2-amino-ethoxy)-pyridin-2-yl]-benzylamino}-ethyl)-2-oxo-oxazolidin-3-yl]-4H-pyrido[3,2-b][1,4]oxazin-3-one]: the MIC in test [1] came out at 0.5 µg/mL (≈ 0.991 µM); in test [2] it was 1 µg/mL (≈ 1.98 µM); in test [3], 0.25 µg/mL (≈ 0.495 µM); in test [4], 0.25 µg/mL (≈ 0.495 µM).
For the compound `O=C1COc2ccc(N3C[C@H](CCNCc4cccc(-c5cccc(OCCN6CCCC6)n5)c4)OC3=O)nc2N1` [Example 9, 6-[(S)-2-oxo-5-(2-{3-[6-(2-pyrrolidin-1-yl-ethoxy)-pyridin-2-yl]-benzylamino}-ethyl)-oxazolidin-3-yl]-4H-pyrido[3,2-b][1,4]oxazin-3-one], the MIC in test [1] was 2 µg/mL (≈ 3.58 µM); in test [2] it was 1 µg/mL (≈ 1.79 µM); in test [3] it was 2 µg/mL (≈ 3.58 µM); in test [4] it was 0.125 µg/mL (≈ 0.224 µM).
`CN(C)CCOc1cnnc(-c2cccc(CNCC[C@H]3CN(c4ccc5c(n4)NC(=O)CO5)C(=O)O3)c2)c1` [Example 10, 6-[(S)-5-(2-{3-[5-(2-dimethylamino-ethoxy)-pyridazin-3-yl]-benzylamino}-ethyl)-2-oxo-oxazolidin-3-yl]-4H-pyrido[3,2-b][1,4]oxazin-3-one]: the MIC turned out to be 2 µg/mL (≈ 3.75 µM) in test [1], 4 µg/mL (≈ 7.5 µM) in test [2], 4 µg/mL (≈ 7.5 µM) in test [3] and 8 µg/mL (≈ 15 µM) in test [4].
In the case of `NCCOc1cncc(-c2cccc(CNCC[C@H]3CN(c4ccc5c(n4)NC(=O)CO5)C(=O)O3)c2)c1` [Example 11, 6-[(S)-5-(2-{3-[5-(2-amino-ethoxy)-pyridin-3-yl]-benzylamino}-ethyl)-2-oxo-oxazolidin-3-yl]-4H-pyrido[3,2-b][1,4]oxazin-3-one], the MIC in test [1] was determined as 2 µg/mL (≈ 3.96 µM); in test [2], 4 µg/mL (≈ 7.93 µM); in test [3], 1 µg/mL (≈ 1.98 µM); in test [4] it was 2 µg/mL (≈ 3.96 µM).
Turning to `O=C1COc2ccc(N3C[C@H](CCNCc4cccc(-c5cccc(OCCN6CCCCC6)n5)c4)OC3=O)nc2N1` [Example 12, 6-[(S)-2-oxo-5-(2-{3-[6-(2-piperidin-1-yl-ethoxy)-pyridin-2-yl]-benzylamino}-ethyl)-oxazolidin-3-yl]-4H-pyrido[3,2-b][1,4]oxazin-3-one], the MIC in test [1] amounted to 1 µg/mL (≈ 1.75 µM); in test [2], 2 µg/mL (≈ 3.49 µM); in test [3] it was 2 µg/mL (≈ 3.49 µM); in test [4], 0.063 µg/mL (≈ 0.11 µM).
Consider `O=C1COc2ccc(N3C[C@H](CCNCc4cccc(-c5cccc(OCCN6CCCCC6)c5)c4)OC3=O)nc2N1` [Example 13, 6-[(S)-2-oxo-5-(2-{[3′-(2-piperidin-1-yl-ethoxy)-biphenyl-3-ylmethyl]-amino}-ethyl)-oxazolidin-3-yl]-4H-pyrido[3,2-b][1,4]oxazin-3-one], for which the MIC in test [1] was 2 µg/mL (≈ 3.5 µM); in test [2] it was 2 µg/mL (≈ 3.5 µM); in test [3], 8 µg/mL (≈ 14 µM); in test [4] it was 0.5 µg/mL (≈ 0.875 µM).
Consider `NC1(COc2cccc(-c3cccc(CNCC[C@H]4CN(c5ccc6c(n5)NC(=O)CO6)C(=O)O4)c3)c2)CC1` [Example 14, 6-[(S)-5-(2-{[3′-(1-amino-cyclopropylmethoxy)-biphenyl-3-ylmethyl]-amino}-ethyl)-2-oxo-oxazolidin-3-yl]-4H-pyrido[3,2-b][1,4]oxazin-3-one], for which the MIC in test [1] stood at 2 µg/mL (≈ 3.78 µM); in test [2] it was 2 µg/mL (≈ 3.78 µM); in test [3], 8 µg/mL (≈ 15.1 µM); in test [4], 1 µg/mL (≈ 1.89 µM).
Turning to `NCCOc1cncc(-c2cccc(CNCC[C@H]3CN(c4ccc5c(n4)NC(=O)CO5)C(=O)O3)c2)n1` [Example 15, 6-[(S)-5-(2-{3-[6-(2-amino-ethoxy)-pyrazin-2-yl]-benzylamino}-ethyl)-2-oxo-oxazolidin-3-yl]-4H-pyrido[3,2-b][1,4]oxazin-3-one], the MIC was 1 µg/mL (≈ 1.98 µM) in test [1], 2 µg/mL (≈ 3.96 µM) in test [2], 1 µg/mL (≈ 1.98 µM) in test [3] and 0.5 µg/mL (≈ 0.989 µM) in test [4].
Take `NCCOc1cccc(-c2ccnc(CNCC[C@H]3CN(c4ccc5c(n4)NC(=O)CO5)C(=O)O3)c2)n1.O=CO` [Example 16, 6-[(S)-5-(2-{[6-(2-amino-ethoxy)-[2,4′]bipyridinyl-2′-ylmethyl]-amino}-ethyl)-2-oxo-oxazolidin-3-yl]-4H-pyrido[3,2-b][1,4]oxazin-3-one formate]: the MIC in test [1] turned out to be 2 µg/mL; in test [2], 4 µg/mL; in test [3], 0.5 µg/mL; in test [4] it was 0.5 µg/mL.
As for `C[C@@H](N)COc1cccc(-c2cccc(CNCC[C@H]3CN(c4ccc5c(n4)NC(=O)CO5)C(=O)O3)c2)n1` [Example 17, 6-[(S)-5-(2-{3-[6-((R)-2-amino-propoxy)-pyridin-2-yl]-benzylamino}-ethyl)-2-oxo-oxazolidin-3-yl]-4H-pyrido[3,2-b][1,4]oxazin-3-one], the MIC came to 1 µg/mL (≈ 1.93 µM) in test [1], 2 µg/mL (≈ 3.86 µM) in test [2], 1 µg/mL (≈ 1.93 µM) in test [3] and 0.5 µg/mL (≈ 0.964 µM) in test [4].
Consider `C[C@H](N)COc1cccc(-c2cccc(CNCC[C@H]3CN(c4ccc5c(n4)NC(=O)CO5)C(=O)O3)c2)n1` [Example 18, 6-[(S)-5-(2-{3-[6-((S)-2-amino-propoxy)-pyridin-2-yl]-benzylamino}-ethyl)-2-oxo-oxazolidin-3-yl]-4H-pyrido[3,2-b][1,4]oxazin-3-one], for which the MIC is 1 µg/mL (≈ 1.93 µM) in test [1], 2 µg/mL (≈ 3.86 µM) in test [2], 1 µg/mL (≈ 1.93 µM) in test [3] and 0.5 µg/mL (≈ 0.964 µM) in test [4].
Take `NCCOc1cc(-c2cccc(CNCC[C@H]3CN(c4ccc5c(n4)NC(=O)CO5)C(=O)O3)c2)ccn1.O=CO` [Example 19, 6-[(S)-5-(2-{3-[2-(2-amino-ethoxy)-pyridin-4-yl]-benzylamino}-ethyl)-2-oxo-oxazolidin-3-yl]-4H-pyrido[3,2-b][1,4]oxazin-3-one formate]: the MIC in test [1] was found to be 1 µg/mL; in test [2], 4 µg/mL; in test [3], 1 µg/mL; in test [4], 8 µg/mL.
For `NCCCCCOc1cccc(-c2cccc(CNCC[C@H]3CN(c4ccc5c(n4)NC(=O)CO5)C(=O)O3)c2)n1` [Example 20, 6-[(S)-5-(2-{3-[6-(5-amino-pentyloxy)-pyridin-2-yl]-benzylamino}-ethyl)-2-oxo-oxazolidin-3-yl]-4H-pyrido[3,2-b][1,4]oxazin-3-one], the MIC in test [1] is 2 µg/mL (≈ 3.66 µM); in test [2] it was 8 µg/mL (≈ 14.6 µM); in test [3], 2 µg/mL (≈ 3.66 µM); in test [4] it was 0.5 µg/mL (≈ 0.915 µM).
Regarding `COc1cc(OCCN)cc(-c2cccc(CNCC[C@H]3CN(c4ccc5c(n4)NC(=O)CO5)C(=O)O3)c2)c1` [Example 21, 6-[(S)-5-(2-{[3′-(2-amino-ethoxy)-5′-methoxy-biphenyl-3-ylmethyl]-amino}-ethyl)-2-oxo-oxazolidin-3-yl]-4H-pyrido[3,2-b][1,4]oxazin-3-one], the MIC in test [1] is 1 µg/mL (≈ 1.87 µM); in test [2], 2 µg/mL (≈ 3.75 µM); in test [3], 1 µg/mL (≈ 1.87 µM); in test [4] it was 0.5 µg/mL (≈ 0.937 µM).

For orientation: MIC means the lowest concentration found to suppress growth.

The values above are taken from US9850256B2, “Antibacterial basic biaromatic derivatives with aminoalkoxy substitution” (priority 2014, dated 2017).
